Measured values reported in patent US10287617B2, “Methods for in vitro—in vivo efficacy determination” (COLORADO STATE UNIVERSITY RESEARCH FOUNDATION, priority 2014, dated 2019).
Several values for one entry are separate records, joined by “and”; a condition that tells them apart may be missing. Equal values may be shown once.

Experiments:
[1] = tested on: M. tuberculosis Erdman; assay type: in vivo; details: SB-P17G-A20 50 mg/kg IP bid, INH 20 mg/kg IP qd, days 5 to 14 post-infection
[2] = tested on: M. tuberculosis H37Rv; assay type: cell-based; details: SB-P17G-A20 with rifampicin
[3] = tested on: M. tuberculosis H37Rv; assay type: cell-based, Mycobacterium tuberculosis; details: 2×10^9 cells plated on 1.6 μg/mL (10 times MIC)

SMILES: NNC(=O)c1ccncc1 [Isoniazid, reference compound]
- reduction in bacterial load in the lungs [1]: below the level of detection
- reduction in bacterial load in the spleen [1]: below the level of detection

SMILES: CN(C)c1cc2nc(C3CCCCC3)[nH]c2cc1NC(=O)c1ccc(OC(F)(F)F)cc1 [SB-P17G-A20]
- enhancement of activity in the presence of the other drug [2]: 2-4 fold
- ΣFIC [2]: 0.75
- reduction in bacterial load in the lungs [1]: 1.73±0.24 log10 CFU and 1.73 log10 CFU
- reduction in bacterial load in the spleen [1]: 2.68 log10 CFU and 2.68±0.48 log10 CFU
- spontaneous resistant mutants [3]: No mutants where observed

SMILES: CCCCOC(=O)Nc1cc2nc(C3CCCCC3)[nH]c2cc1N(C)C [SB-P17G-C2]
- reduction in bacterial load in the lungs [1]: no significant reduction
- reduction in bacterial load in the spleen [1]: no significant reduction
